Experimental data reported in patent US9796676B2, “Honeybee repellents and uses thereof” (Inscent, Inc., priority 2013, dated 2017).

What was measured:
OBP2 = test: Fluorescent-quench ligand-protein-binding assay (OBP2 binding); design: species or system Apis mellifera
From the text: To identify a honeybee repellent disclosed herein, candidate compounds were screened based upon the fact that 2-heptanone is an established repellent of bees. 2-heptanone is thought to mediate its behavioral response through binding to a specific odorant-binding protein called OBP2. […] Such assays are generally known in the art. See, e.g., Briand, et al., Ligand-Binding Properties and Structural Characterization of a Novel Rat Odorant-Binding Protein Variant, Eur. J. Biochem. 267(10): 3079-3089 (2000); Briand, et al., Ligand Binding and Physico-Chemical Properties of ASP2, A Recombinant Odorant-Binding Protein From Honeybee (Apis mellifera L.), Eur. J. Biochem. 268(3): 752-760 (2001); Briand, et al., Characterization of a Chemosensory Protein (ASP3c) from Honeybee (Apis mellifera L.) as a Brood Pheromone Carrier, Eur. J. Biochem. 269(18): 4586-4596 (2002), each of which is hereby incorporated by reference in its entirety.

[1] = test system: Apis mellifera Carniolan foraging worker honeybees; test: Proboscis extension response (PER) assay with bees conditioned to 2-heptanone; type: in vivo; conditions: 0.5% compound in Triton X-100/water on filter paper, 4 s exposure; only bees giving PER with 2-heptanone and not with water or 15% Triton X-100 controls counted
Description: To determine whether a living honeybee can recognize a candidate compound, these compounds were tested using a proboscis extension response (PER) assay using classical conditioning approaches. Proboscis extension response conditioning is a case of appetitive learning, in which bees learn to associate odor stimuli with sucrose reward in the laboratory. In this case, bees were conditioned to produce a PER to 2-heptanone as the conditioned stimulus and a sugar reward as the unconditioned stimulus. These trained bees were then exposed to an odor pulse of a candidate compound to test whether a candidate compound would also produce a PER. If the candidate compound “mimics” 2-heptanone then the honeybee will extend its proboscis.
For conditioning procedures, Apis mellifera Carniolan foraging worker honeybees were obtained from a local apiary (typically 60 bees per shipment). The honeybees were held overnight in insect cages with food and water freely available, in an environmentally controlled room on a light cycle similar to the ambient cycle at the time of the assay.
For conditioning procedures, all tests were done in an odorant delivery apparatus set inside a fume hood. The apparatus comprised a set of open-ended, horizontal, 3 cm diameter by 10 cm long plastic tubes. Each tube was designed where a honeybee could be positioned at the distal end of a tube, with the opening at the other end of the tube located proximal to an inlet of the fume hood. To deliver an odorant, room air was pumped by a diaphragm pump through a particle filter via 0.25 inch plastic tubing at approximately 0.7 m/sec. The air flow passes into the headspace above an odorant (0.5% [v/v] 2-heptanone dissolved in odorless light paraffin oil) contained in a 100 mL bottle. The headspace air then passes through another plastic tube to a manifold of 4-way valves, each of which was attached near the proximal end of a plastic tube containing a bee. Each bee was exposed separately for a desired time period to the odorant by opening and closing the appropriate valve. When each valve was closed, the odor was flushed away immediately by the continuous fume hood air stream.
To train a honeybee to respond to a conditioned and unconditioned stimuli, bees were placed, without anesthesia, in individual 1.5 mL micro-centrifuge holding tubes and held overnight without access to food or water. The holding tubes containing the starved bees were placed in racks in groups of eight. One rack at a time was placed behind the odorant delivery apparatus so that each bee's head is centered at the distal end of a horizontal plastic tube. Each bee was exposed to the 2-heptanone odorant alone for four seconds, and then while being fed an 80% sucrose solution for and additional three seconds. The sucrose solution was delivered on a piece of saturated filter paper held in forceps. […] Positive and negative responses were recorded. A positive PER was scored when a bee extended its proboscis before the sucrose appeared. In a typical trial, 48 individual bees were subjected to conditioning.
After conditioning, honeybees were tested with the candidate compounds the same day or on the following day or, most commonly, both. When held overnight, bees were fed with sucrose and kept in their holding tubes. When tested the day after training, bees were given one or more rounds of conditioning with 2-heptatone to refresh their memories. Candidate compounds stocks were made at 5% (w/v) in polyoxyethylene octyl phenyl ether (TRITON® X-100), a non-ionic detergent/surfactant, and stored at 4° C. […] Test solutions were made fresh daily by mixing stock solutions with water for a final compound concentration of 0.5%. A solution of 0.5% 2-heptanone in paraffin oil was used as a positive control.

O=C(c1ccccc1)N1N=C(c2ccccc2)CC1(O)C(F)(F)F (centres unmarked) [compound 119]
OBP2 binding characteristic of compound (OBP2): Moderate (Moderate, indicates that 50% or less of the compound bound to OBP2.)
2-heptanone positive bees testing positive to compound [1]: 60.0%

CC(C)CCn1c(=O)c(C(=O)NCc2ccco2)c(O)c2ccccc21 [compound 95]
OBP2 binding characteristic of compound (OBP2): Moderate (Moderate, indicates that 50% or less of the compound bound to OBP2.)
2-heptanone positive bees testing positive to compound [1]: 7.3%

O=C1CSC(=CC(=O)c2ccc(Cl)cc2)N1 [compound 111]
OBP2 binding characteristic of compound (OBP2): Moderate (Moderate, indicates that 50% or less of the compound bound to OBP2.)
2-heptanone positive bees testing positive to compound [1]: 30.6%

C(=NN(c1ccccc1)c1ccccc1)c1ccncc1 [compound 92]
OBP2 binding characteristic of compound (OBP2): Moderate (Moderate, indicates that 50% or less of the compound bound to OBP2.)
2-heptanone positive bees testing positive to compound [1]: 7.0%

O=C1CSC(=O)N1CC(O)Cn1c2ccc(Cl)cc2c2cc(Cl)ccc21 (centres unmarked) [compound 72]
OBP2 binding characteristic of compound (OBP2): Moderate (Moderate, indicates that 50% or less of the compound bound to OBP2.)
2-heptanone positive bees testing positive to compound [1]: 2.3%

COc1ccccc1NC(=S)NC(=O)c1ccc(F)cc1 [compound 107]
OBP2 binding characteristic of compound (OBP2): Moderate (Moderate, indicates that 50% or less of the compound bound to OBP2.)
2-heptanone positive bees testing positive to compound [1]: 5.1%

O=C(NC(=S)Nc1cccc2cccnc12)c1cccs1 [compound 117]
OBP2 binding characteristic of compound (OBP2): Moderate (Moderate, indicates that 50% or less of the compound bound to OBP2.)

Cc1cc(C)c(O)c(N=Cc2cc(I)cc(I)c2O)c1 [compound 82]
OBP2 binding characteristic of compound (OBP2): Moderate (Moderate, indicates that 50% or less of the compound bound to OBP2.)
2-heptanone positive bees testing positive to compound [1]: 6.4%

COc1cccc(C=C2SC(=N)NC2=O)c1OCc1ccc(Cl)cc1Cl [compound 118]
OBP2 binding characteristic of compound (OBP2): Moderate (Moderate, indicates that 50% or less of the compound bound to OBP2.)

O=C1C=Cc2ccccc2C1=NNc1ccc2c(c1)OCCO2 [compound 105]
OBP2 binding characteristic of compound (OBP2): Moderate (Moderate, indicates that 50% or less of the compound bound to OBP2.)
2-heptanone positive bees testing positive to compound [1]: 24.3%

O=C1NC(=S)SC1=Cc1ccc(N2CCOCC2)c([N+](=O)[O-])c1 [compound 85]
OBP2 binding characteristic of compound (OBP2): Moderate (Moderate, indicates that 50% or less of the compound bound to OBP2.)
2-heptanone positive bees testing positive to compound [1]: 18.0%

Nc1cccc2nc3c4cccc5cccc(c(=O)n3c12)c54 [compound 109]
OBP2 binding characteristic of compound (OBP2): Moderate (Moderate, indicates that 50% or less of the compound bound to OBP2.)
2-heptanone positive bees testing positive to compound [1]: 12.1%

CCN(CC)C(=O)c1c(NC(=O)c2ccco2)sc2c1CCCCC2 [compound 97]
OBP2 binding characteristic of compound (OBP2): Moderate (Moderate, indicates that 50% or less of the compound bound to OBP2.)
2-heptanone positive bees testing positive to compound [1]: 21.1%

C=CCN1C(=O)C(=Cc2cccc([N+](=O)[O-])c2O)SC1=S [compound 91]
OBP2 binding characteristic of compound (OBP2): Moderate (Moderate, indicates that 50% or less of the compound bound to OBP2.)
2-heptanone positive bees testing positive to compound [1]: 17.3%

Cc1[nH]c2ccccc2c1C=NNC(=O)c1cccc(I)c1 [compound 103]
OBP2 binding characteristic of compound (OBP2): Moderate (Moderate, indicates that 50% or less of the compound bound to OBP2.)
2-heptanone positive bees testing positive to compound [1]: 32.4%

Cc1cc(C)c2ccc(C=Cc3ccccc3N)nc2c1O [compound 90]
OBP2 binding characteristic of compound (OBP2): Moderate (Moderate, indicates that 50% or less of the compound bound to OBP2.)
2-heptanone positive bees testing positive to compound [1]: 17.0%

c1ccn(-c2ncnc3sc4c(c23)CCCC4)c1 [compound 77]
OBP2 binding characteristic of compound (OBP2): Moderate (Moderate, indicates that 50% or less of the compound bound to OBP2.)
2-heptanone positive bees testing positive to compound [1]: 14.3%

CCOC(=O)CSc1nc2c(c(=O)n1-c1ccccc1)C1(CCCC1)Cc1ccccc1-2 [compound 71]
OBP2 binding characteristic of compound (OBP2): Moderate (Moderate, indicates that 50% or less of the compound bound to OBP2.)
2-heptanone positive bees testing positive to compound [1]: 19.1%

CCN1C(=O)C(=Cc2cc(Br)ccc2O)SC1=S [compound 116]
OBP2 binding characteristic of compound (OBP2): Moderate (Moderate, indicates that 50% or less of the compound bound to OBP2.)
2-heptanone positive bees testing positive to compound [1]: 25.0%

O=c1c2cc(O)cc3cccc(c32)c2nc3ccc4c5c(ccc(c35)n12)CC4 [compound 112]
OBP2 binding characteristic of compound (OBP2): Moderate (Moderate, indicates that 50% or less of the compound bound to OBP2.)
2-heptanone positive bees testing positive to compound [1]: 44.4%

O=C(Nc1sc2c(c1C(=O)N1CCCCC1)CCCCC2)c1ccccc1 [compound 99]
OBP2 binding characteristic of compound (OBP2): Moderate (Moderate, indicates that 50% or less of the compound bound to OBP2.)
2-heptanone positive bees testing positive to compound [1]: 29.0%

Oc1ccc(Br)cc1C=Nc1ccc(NCc2ccccc2)cc1 [compound 87]
OBP2 binding characteristic of compound (OBP2): Moderate (Moderate, indicates that 50% or less of the compound bound to OBP2.)
2-heptanone positive bees testing positive to compound [1]: 9.5%

Cc1ccc(NC(=O)c2c(NC(=O)c3ccco3)sc3c2CCCCC3)cc1 [compound 98]
OBP2 binding characteristic of compound (OBP2): Moderate (Moderate, indicates that 50% or less of the compound bound to OBP2.)
2-heptanone positive bees testing positive to compound [1]: 21.6%

O=C(C=CNc1ccccc1O)c1ccc(Br)cc1 [compound 110]
OBP2 binding characteristic of compound (OBP2): Moderate (Moderate, indicates that 50% or less of the compound bound to OBP2.)
2-heptanone positive bees testing positive to compound [1]: 31.4%

O=C(NN=Cc1ccc(-c2cccc(Cl)c2Cl)o1)c1ccncc1 [compound 113]
OBP2 binding characteristic of compound (OBP2): Moderate (Moderate, indicates that 50% or less of the compound bound to OBP2.)
2-heptanone positive bees testing positive to compound [1]: 11.1%

O=C(c1ccccc1)N1N=C(C(F)(F)F)CC1(O)c1ccccc1O (centres unmarked) [compound 73]
OBP2 binding characteristic of compound (OBP2): Moderate (Moderate, indicates that 50% or less of the compound bound to OBP2.)
2-heptanone positive bees testing positive to compound [1]: 8.3%

COc1ccc2ccccc2c1C=Nc1cc(C)ccc1C [compound 84]
OBP2 binding characteristic of compound (OBP2): Moderate (Moderate, indicates that 50% or less of the compound bound to OBP2.)
2-heptanone positive bees testing positive to compound [1]: 27.9%

CCOC(=O)c1c(-c2ccccc2)csc1NC(=S)NC(C)=O [compound 78]
OBP2 binding characteristic of compound (OBP2): Moderate (Moderate, indicates that 50% or less of the compound bound to OBP2.)
2-heptanone positive bees testing positive to compound [1]: 7.7%

Clc1ccccc1-c1nnc(SCc2ccccc2)o1 [compound 106]
OBP2 binding characteristic of compound (OBP2): Moderate (Moderate, indicates that 50% or less of the compound bound to OBP2.)
2-heptanone positive bees testing positive to compound [1]: 7.3%

CCN1C(=O)C(=Cc2cc(Br)ccc2OC)SC1=S [compound 115]
OBP2 binding characteristic of compound (OBP2): Moderate (Moderate, indicates that 50% or less of the compound bound to OBP2.)
2-heptanone positive bees testing positive to compound [1]: 40.0%

O=C1c2ccccc2C(=O)c2c1ccc1c(=O)n(C3CCCCC3)[nH]c21 [compound 88]
OBP2 binding characteristic of compound (OBP2): Moderate (Moderate, indicates that 50% or less of the compound bound to OBP2.)
2-heptanone positive bees testing positive to compound [1]: 14.3%

NC(=O)c1ccccc1NC(=O)c1sc2ccccc2c1Cl [compound 94]
OBP2 binding characteristic of compound (OBP2): Moderate (Moderate, indicates that 50% or less of the compound bound to OBP2.)
2-heptanone positive bees testing positive to compound [1]: 16.7%
